Consider 1 compound from US20240228572A1 (i2o Therapeutics, Inc., priority 2020, published 2024).

The nature of data set [1]: Metabolic stability in monkey kidney brush border membranes (kBBM). It is filed as in vitro ADME. To be noted: pH 7.4, read-out: kBBM t½. The protocol: Brush border membranes from rat and human kidney tissue were prepared via centrifugation and stored at −70° C. Thawed stocks of rat or human kBBM were diluted to the appropriate concentration in 25 mM HEPES buffer (pH 7.4) containing 1% casein and aliquoted into a 96-well plate. The kBBM solutions were pre-warmed for 10 minutes at 37° C. Reactions were initiated by the addition of test peptide (1 mcM final concentration) also dissolved in 25 mM HEPES buffer (pH 7.4) containing 1% casein. The final concentration of kBBM in each incubation was 50 mcg protein/mL. Reactions were maintained at 37° C. in a shaking water bath. At 0, 0.25, 0.5, 1.0, 2.0, and 4.0 h post-initiation, 30 mcL of the reaction mixture was removed and placed into a 96-well plate containing 120 mcL of ice-cold methanol containing 2.5% formic acid. Quenched samples were centrifuged at 2178×g for 10 min and then a portion of the supernatants were transferred to a clean 96-well plate and diluted 1:1 with water.

The test system of the next data set is cynomolgus monkey GCGR. Description: cAMP accumulation assay, CHO-K1 cells expressing cynomolgus monkey GCGR. It is filed as cell-based. The note with it: cyno glucagon receptor. The source says:
In the presence of the non-specific cAMP/cGMP phosphodiesterase inhibitor, 3-isobutyl-1-methylxanthine (IBMX), accumulating cAMP can be measured in vitro using common detection methods. Thus, it is possible to estimate an in vitro potency (pEC50) for peptides activating each of these receptors using fit dose-response curves for cAMP accumulation.
A cDNA fragment encoding the full-length open reading frame of the cynomolgus monkey GLP-1R (Genebank accession #XM_028847603 was cloned into pcDNA3.1+ for expression in CHO-K1 cells. A cDNA fragment encoding the full-length open reading frame of the human GCGR (Genebank accession #NM_000160 was cloned into pcDNA3.1+ for expression in CHO-K1 cells. A cDNA fragment encoding the full-length open reading frame of the rat GCGR (Genebank accession #NM_12091 was cloned into pcDNA3.1+ for expression in CHO-K1 cells. A cDNA fragment encoding the full-length open reading frame of the cynomolgus monkey GCGR (Genebank accession #XM_005585255 was cloned into pcDNA3.1+ for expression in CHO-K1 cells. […]
Peptides were serially diluted 4-fold in assay buffer to final concentrations ranging from 1×10^−9 M to 9.5×10^−16 M. Two assay controls consisting of 50 mcM forskolin (cAMP system maximum) or assay buffer only (cAMP system minimum) were also prepared. […] Plates were read on an Envision fluorescent plate reader (PerkinElmer). […]
On the technique in general: Cyclic AMP is a second messenger, typically raised through Gs and lowered through Gi signalling.

A short description of data set [2]: Intravenous infusion pharmacokinetics in rats. It is filed as in vivo. The note with it: rat, plasma, IV infusion 0.033 mg/kg, male Sprague-Dawley rats. As for the experimental part: Peptides were dissolved in 0.05% Tween-20 in phosphate buffered saline and administered as a 1-hour intravenous infusion to non-fasted male Sprague-Dawley rats (n=3 per group) via femoral vein cannula at a final dose of 0.033 mg/kg. Formulations were administered at a rate of 1.67 mL/kg/h. Blood samples (approximately 250 μL) were collected for pharmacokinetic analysis via a jugular vein cannula at 0.25, 0.5, 0.75, 1, 1.17, 1.33, 1.5, 2, 4, 8, 24, 48, 72, and 96 hours post-start of infusion into microtainer tubes containing K2EDTA as anticoagulant and 25 μL of a protease inhibitor cocktail. Plasma was prepared by centrifugation and stored at −80° C. until analysis.
A 70 μL aliquot of each plasma sample was placed into to a 96-well plate. To each well was added 210 μL of 0.1% TFA in 2:1 ethanol:acetonitrile containing an appropriate internal standard. Plates were vortex mixed for 10 min at 1300 rpm, and then centrifuged for 10 min at 500× g. Supernatants (210 μL) were placed into a clean 96-well plate and evaporated under a nitrogen stream at 45° C. Residues were reconstituted in 80 μL of 20% acetonitrile (aq) containing 0.1% formic acid.
All calibration standards were prepared in control rat plasma containing K2EDTA and protease inhibitor cocktail.
Samples and standards were analyzed by electrospray ionization (ESI) UPLC-MS/MS using a system consisting of a CTC HTS PAL auto-injector (Leap, Carrboro, NC), an Agilent Infinity 1290 system with column oven (Palo Alto, CA), a Valco switching valve (Houston, TX), and a Sciex TripleTOF® 5600 mass spectrometer (Framingham, MA). Samples were injected onto a 2.1×50 mm reverse phase C18 analytical column, typically a Waters CORTECS UPLC C18+, 1.6 μm (Waters Corporation, Milford, MA) or similar. […] Initial conditions consisted of 95% A and 5% B. The organic component was increased to 95% B over a period of 3-4 minutes, depending on the peptide. Typical flow rates were 550 μL/min. The column temperature was held constant at 45° C. Peptides were quantified by monitoring one or more product ions produced from a multiply charged parent ion.

*1 amine or outer side, *2 acyl side, *3 side chain or, on linkers, in order; H or OH if unused. Where a SMILES comes first, the peptide text is derived from it. Side-chain parts run from the residue outwards. [ ]: non-standard residue; d: D form. The star is where a group is joined. C20 diacid = O=C(O)CCCCCCCCCCCCCCCCCCC(=O)*; γGlu = O=C(O)[C@H](CCC(=O)[*:2])N[*:1]; AEEA = NCCOCCOCC(=O)O; Aib = CC(C)(N)C(=O)O

What is called clearance is the rate of elimination divided by the concentration. Turning to `CC(C)C[C@H](NC(=O)[C@H](Cc1ccc(O)cc1)NC(=O)[C@H](CCCCN)NC(=O)[C@H](CO)NC(=O)[C@H](Cc1ccc(O)cc1)NC(=O)[C@H](CC(=O)O)NC(=O)[C@H](CO)NC(=O)[C@@H](NC(=O)[C@H](Cc1ccccc1)NC(=O)[C@@H](NC(=O)CNC(=O)[C@H](Cc1c[nH]cn1)NC(=O)[C@H](CO)NC(=O)[C@@H](N)Cc1ccc(O)cc1)[C@@H](C)O)[C@@H](C)O)C(=O)N[C@@H](CC(=O)O)C(=O)NC(C)(C)C(=O)N[C@@H](CCCCN)C(=O)N[C@@H](Cc1ccc(O)cc1)C(=O)N[C@@H](C)C(=O)N[C@@H](CCC(N)=O)C(=O)N[C@@H](CCCCNC(=O)CC[C@H](NC(=O)CC[C@H](NC(=O)COCCOCCNC(=O)CCCCCCCCCCCCCCCCCCC(=O)O)C(=O)O)C(=O)O)C(=O)N[C@@H](Cc1ccccc1)C(=O)N[C@H](C(=O)NC(C)(C)C(=O)N[C@@H](Cc1c[nH]c2ccccc12)C(=O)N[C@@H](CC(C)C)C(=O)N[C@@H](CCC(=O)O)C(=O)N[C@@H](CC(=O)O)C(=O)N[C@@H](CCC(=O)O)C(=O)N1CCC[C@H]1C(=O)N[C@@H](CO)C(=O)N[C@@H](CO)C(=O)NCC(=O)N[C@@H](C)C(=O)N1CCC[C@H]1C(=O)N1CCC[C@H]1C(=O)N1CCC[C@H]1C(=O)N[C@@H](CO)C(=O)O)C(C)C` [Compound A6] (H-YSHGTFTSDYSKYLD[Aib]KYAQK([γGlu-γGlu-AEEA-C20 diacid])FV[Aib]WLEDEPSSGAPPPS-OH; N-terminus assumed), the half-life at 1 mcM in data set [1] was over 12 h. Moreover, the “Activity (as EC50 values) cGCGR” value in the data set on cynomolgus monkey GCGR is 9.77. Also, the clearance in data set [2] (1-hour) was 4.97 mL/h/kg. In data set [2], this compound gave a half-life of 13 h. Also, the Vd in data set [2] (read-out: Vss) came out at 0.0867 L/kg.
